Data from patent US9856478B2, “Method for selectively inhibiting ACAT1 in the treatment of obesity, metabolic syndrome, and atherosclerosis” (Trustees of Dartmouth College, priority 2013, dated 2018).

Assays:
ACAT2 = conditions: cited from earlier work
blood myeloid cells = test: Blood myeloid cells (CD11b+Gr1+) after 5-FU injection, flow cytometry; assay type: in vivo, mouse; conditions: 150 mg/kg single injection, six days post-injection
Description: It also had shown previously that global Acat1^−/− induces leukocytosis (Huang et al. 2013. Arterioscl. Thromb. Vasc. Biol. 33:2081-2087). Therefore, experiments were performed to compare the hematopoietic recovery of wild-type, global Acat1^−/−, and Acat1^−M/−M mice after injection of the myelo-suppressive agent 5-fluorouracil (5-FU; 150 mg/kg) (Lindner et al. 1960. Cancer Res. 20:497-502). Mice from all three genotypes (7-9 weeks of age) were administered a single 5-FU injection. After injection, blood myeloid cells (CD11b+Gr1+) isolated from these mice were monitored by flow cytometry. […] Six days post-injection, almost all of the myeloid cells in wild-type, Acat1^−/− and Acat1^−M/−M mice were depleted by 5-FU.

mouse ACAT1 = test: ACAT1 protein by western blot in transfected NIH-3T3 mouse fibroblasts; assay type: cell-based; conditions: NIH-3T3, rAAV vector transfection, 48 hours, GFP-positive cells
From the text: NIH-3T3 mouse fibroblasts were transiently transfected with one of several rAAV vectors encoding EmGFP and microRNA (miR) #52, #53, #54 or #55. Forty-eight hours post-transfection, GFP-positive cells were harvested by FACS. GFP-positive cells were washed then lysed in 10% SDS and syringe homogenized. Twenty microgram of protein per sample was subjected to SDS-PAGE. After western blot analysis, bands were quantified with ImageJ. ACAT1 intensity was normalized to GAPDH as a loading control and expressed as relative intensity.
Four different siRNA molecules (#52-#55; Table 3) targeting the mouse Acat1 gene were inserted into an endogenous mouse microRNA (miR) scaffold using Invitrogen's RNAi design tool. The artificial miRs were ligated into the mammalian expression vector pcDNA6.2-GW/EmGFP-miR. […] The miRs were delivered to the cells using a standard cDNA transfection protocol.

[1] = system: cholesteryl ester synthesis in peritoneal macrophages; test: 3H-oleate incorporation into cholesteryl esters in peritoneal macrophages; assay type: cell-based, mouse; conditions: 5 μM, 16 hours, agLDL, macrophages from wild-type or LyzCre+/+ mice
Description: Peritoneal macrophages were isolated as previously described (Sakashita et al. 2010. J. Lipid Res. 51:1263-1272), four days after injecting 1 ml of thioglycolate (TG) (3% wt/vol; Sigma Chemical Co.). Peritoneal leukocytes were isolated and incubated in 6-well culture dishes with 2 ml/well DMEM medium with 10% FBS at 37° C. for two hours. After washing with PBS two times, the firmly attached macrophages were used to measure ACAT1 mRNA and protein level.
Experiments were then performed to confirm that ACAT1 was specifically deleted in macrophages of the Acat1^−M/−M mouse. Peritoneal macrophages were isolated from Acat1^−M/−M and Acat1+^M/+M mice four days after thioglycolate injection. The cells were incubated with aggregated LDL (agLDL), an agent known to provide large amount of cholesterol to macrophages (Khoo et al. 1988. Arteriosclerosis 8:348-358), with or without an ACAT inhibitor at a saturating concentration (Compound F12511; at 5 μM) (Chang et al. 2000. J. Biol. Chem. 275:28083-28092), for 16 hours, followed by ^3H-oleate incorporation to measure the biosynthesis of labeled cholesteryl esters. […] Next, ACAT1 mRNA and protein content were measured in wild-type and Acat1^−M/−M macrophages. […] In wild-type mice, ACAT1 is abundantly expressed in the adrenal glands.

hACAT-2 = target: T1, hACAT-2 (Homo sapiens, UniProt O75908); conditions: cited from earlier work
T1 sequence (O75908 1-522): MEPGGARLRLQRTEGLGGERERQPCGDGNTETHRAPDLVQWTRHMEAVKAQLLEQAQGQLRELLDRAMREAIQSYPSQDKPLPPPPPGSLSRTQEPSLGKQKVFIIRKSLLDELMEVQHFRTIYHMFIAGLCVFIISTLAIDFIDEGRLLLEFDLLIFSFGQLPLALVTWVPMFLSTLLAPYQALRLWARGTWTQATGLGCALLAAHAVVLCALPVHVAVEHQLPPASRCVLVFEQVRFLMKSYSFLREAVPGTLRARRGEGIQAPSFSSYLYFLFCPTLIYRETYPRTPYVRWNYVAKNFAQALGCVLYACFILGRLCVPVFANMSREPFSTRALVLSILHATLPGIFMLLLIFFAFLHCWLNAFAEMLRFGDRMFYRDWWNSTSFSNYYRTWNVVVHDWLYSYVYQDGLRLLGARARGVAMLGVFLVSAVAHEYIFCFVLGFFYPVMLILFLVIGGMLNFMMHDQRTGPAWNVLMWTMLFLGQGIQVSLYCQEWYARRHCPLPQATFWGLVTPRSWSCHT

ACAT1 = conditions: cited from earlier work

Question: For `CC(C)c1cccc(C(C)C)c1NC(=O)CC(=O)C(Cc1ccccc1)Cc1ccc(O)cc1` (stereo not shown) [Compound 1B], which IC50 (ACAT2) is on record?
Answer: The IC50 was 1.5 µM.

Question: With `CCCCCCCCCNc1cc(-c2ccccc2)nn1-c1ccccc1` [compound 16] as the molecule, how does the IC50 (ACAT2) read?
Answer: Its IC50 is 97 µM.

Question: Which “depletion of blood myeloid cells” value (blood myeloid cells) does the source give for `O=c1[nH]cc(F)c(=O)[nH]1` [5-FU, 5-fluorouracil] here?
Answer: The value was “almost all”.

Question: Which “Relative Intensity (ACAT1 normalized to GAPDH)” value (mouse ACAT1) does the source give for “miR Negative Control: negative control miR 5′-TACTGCGCGTGGAGACG-3′ (SEQ ID NO:17), matches no known vertebrate gene (chemistry not given here)” here?
Answer: Its value is 1.02.

Question: With `CCCCCCCCC(=O)Nc1ccccc1-c1ccccc1` [compound 2] as the molecule, how does the IC50 (ACAT2) read?
Answer: Its IC50 is 414 µM.

Question: With `CCCCCCCCC(=O)Nc1cc(-c2ccccc2)nn1-c1ccccc1` [compound 14] as the molecule, how does the IC50 (ACAT2) read?
Answer: Its IC50 is 75 µM.

Question: For `CCCCCCCCCCCCS[C@H](C(=O)Nc1cc(C)c(O)c(C)c1C)c1ccccc1` [Eflucimibe (F12511)], which IC50 (ACAT2) is on record?
Answer: Its IC50 is 0.11 µM.

Question: What about the “cholesteryl ester synthesis rate” value [1] of the same molecule?
Answer: Its value is “drastically reduced”.

Question: For `COc1ccc([C@@H](O)[C@@H](C)Oc2ccc([C@H]3O[C@H](c4ccc(O[C@H](C)[C@H](O)c5ccc6c(c5)OCO6)c(OC)c4)[C@H](C)[C@H]3C)cc2OC)cc1OC` [manassantin B], which “inhibition of hACAT-2” value (hACAT-2; at 1 mM) is on record?
Answer: Its value is 32%.

Question: Which IC50 (hACAT-2) does the source give for saucerneol B here?
Answer: The IC50 was 124 µM.

Question: Which IC50 (ACAT2) does the source give for `CCOC(=O)OC(=O)OCC` [diethyl pyrocarbonate] here?
Answer: The IC50 was 170 µM.

Question: And the IC50 (ACAT1)?
Answer: Its IC50 is 44 µM.

Question: And the “greater activity on ACAT1 compared to ACAT-2” value (ACAT1)?
Answer: The value was 4 fold.

Question: For `CC(C)c1cccc(C(C)C)c1NC(=O)CC(=O)C(Cc1ccccc1)Cc1ccc(OC(=O)CCCCCCN2CCCCCC2=O)cc1` (stereo not shown) [Compound 1C], which IC50 (ACAT2) is on record?
Answer: Its IC50 is 0.53 µM.

Question: With `CCCCCCCC(=O)Nc1ccccc1-c1ccccc1` [compound 1] as the molecule, how does the IC50 (ACAT2) read?
Answer: Its IC50 is 230 µM.

Question: For `CCCCCCCC(=O)Nc1cc(-c2ccccc2)nn1-c1ccccc1` [compound 13], which IC50 (ACAT2) is on record?
Answer: Its IC50 is 53 µM.
